Columns and labels:
Test in all cases: viability relative to DMSO control (fraction); higher = less drug effect (more viable cells)
Conditions in all cases: 48 h
[1] = tested on: primary ALL patient cells (S088)
Procedure, shortened: (§1)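 Viability is given as CellTiter-Glo luminescence relative to the median of 16 inner DMSO wells. Fresh or cryopreserved primary mononuclear tumour cells from blood, bone marrow (both Ficoll-isolated) or processed lymph node were plated at 4 × 10^4 cells per well in 384-well plates against five pre-plated compound concentrations, one well each. Incubation lasted 48 h at 37 °C and 5% CO2 in RPMI-1640 with penicillin/streptomycin, L-glutamine and human serum.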

[2] = tested on: primary AML patient cells (S011)
Procedure, shortened: as §1

[3] = tested on: primary AML patient cells (S019)
Procedure, shortened: as §1

[4] = tested on: primary AML patient cells (S037)
Procedure, shortened: as §1

[5] = tested on: primary AML patient cells (S060)
Procedure, shortened: as §1

[6] = tested on: primary AML patient cells (S071)
Procedure, shortened: as §1

[7] = tested on: primary AML patient cells (S085)
Procedure, shortened: as §1

[8] = tested on: primary AML patient cells (S089)
Procedure, shortened: as §1

[9] = tested on: primary AML patient cells (S091)
Procedure, shortened: as §1

[10] = tested on: primary B-PLL patient cells (S016)
Procedure, shortened: as §1

[11] = tested on: primary CLL patient cells (S031)
Procedure, shortened: as §1

[12] = tested on: primary DLBCL patient cells (S082)
Procedure, shortened: as §1

[13] = tested on: primary FL patient cells (S087)
Procedure, shortened: as §1

[14] = tested on: primary MCL patient cells (S041)
Procedure, shortened: as §1

## Nc1ncn([C@@H]2O[C@H](CO)[C@@H](O)[C@H]2O)c(=O)n1 [Azacytidine (Vidaza)]
[1]; 0.032 µM
  viability: 0.958
[1]; 0.16 µM
  viability: 1.06
[1]; 0.8 µM
  viability: 0.934
[1]; 4 µM
  viability: 0.552
[1]; 20 µM
  viability: 0.233
[2]; 0.032 µM
  viability: 1.05
[2]; 0.16 µM
  viability: 1.29
[2]; 0.8 µM
  viability: 0.811
[2]; 4 µM
  viability: 0.32
[2]; 20 µM
  viability: 0.134
[3]; 0.032 µM
  viability: 0.935
[3]; 0.16 µM
  viability: 1.34
[3]; 0.8 µM
  viability: 0.986
[3]; 4 µM
  viability: 0.522
[3]; 20 µM
  viability: 0.308
[4]; 0.032 µM
  viability: 1
[4]; 0.16 µM
  viability: 1.01
[4]; 0.8 µM
  viability: 0.901
[4]; 4 µM
  viability: 0.7
[4]; 20 µM
  viability: 0.595
[5]; 0.032 µM
  viability: 1
[5]; 0.16 µM
  viability: 1.02
[5]; 0.8 µM
  viability: 1.02
[5]; 4 µM
  viability: 1.02
[5]; 20 µM
  viability: 0.923
[6]; 0.032 µM
  viability: 0.968
[6]; 0.16 µM
  viability: 0.985
[6]; 0.8 µM
  viability: 0.695
[6]; 4 µM
  viability: 0.29
[6]; 20 µM
  viability: 0.131
[7]; 0.032 µM
  viability: 1.22
[7]; 0.16 µM
  viability: 0.976
[7]; 0.8 µM
  viability: 0.638
[7]; 4 µM
  viability: 0.14
[7]; 20 µM
  viability: 0.0812
[8]; 0.032 µM
  viability: 0.841
[8]; 0.16 µM
  viability: 1.05
[8]; 0.8 µM
  viability: 0.67
[8]; 4 µM
  viability: 0.0823
[8]; 20 µM
  viability: 0.0388
[9]; 0.032 µM
  viability: 0.933
[9]; 0.16 µM
  viability: 1.02
[9]; 0.8 µM
  viability: 0.892
[9]; 4 µM
  viability: 0.788
[9]; 20 µM
  viability: 0.621
[10]; 0.032 µM
  viability: 1.03
[10]; 0.16 µM
  viability: 1.06
[10]; 0.8 µM
  viability: 0.912
[10]; 4 µM
  viability: 0.142
[10]; 20 µM
  viability: 0.0474
[11]; 0.032 µM
  viability: 1.08
[11]; 0.16 µM
  viability: 1.01
[11]; 0.8 µM
  viability: 0.989
[11]; 4 µM
  viability: 0.539
[11]; 20 µM
  viability: 0.0698
[12]; 0.032 µM
  viability: 0.969
[12]; 0.16 µM
  viability: 1.08
[12]; 0.8 µM
  viability: 1.07
[12]; 4 µM
  viability: 1.04
[12]; 20 µM
  viability: 0.26
[13]; 0.032 µM
  viability: 1.1
[13]; 0.16 µM
  viability: 1.06
[13]; 0.8 µM
  viability: 0.997
[13]; 4 µM
  viability: 0.906
[13]; 20 µM
  viability: 0.678
[14]; 0.032 µM
  viability: 1.04
[14]; 0.16 µM
  viability: 1.03
[14]; 0.8 µM
  viability: 0.812
[14]; 4 µM
  viability: 0.151
[14]; 20 µM
  viability: 0.0515

## CCc1nc(C(N)=O)c(Nc2ccc(N3CCC(N4CCN(C)CC4)CC3)c(OC)c2)nc1NC1CCOCC1 [Gilteritinib]
[1]; 0.024 µM
  viability: 0.698
[1]; 0.12 µM
  viability: 0.545
[1]; 0.6 µM
  viability: 0.388
[1]; 3 µM
  viability: 0.414
[1]; 15 µM
  viability: 0.131
[2]; 0.024 µM
  viability: 0.834
[2]; 0.12 µM
  viability: 0.755
[2]; 0.6 µM
  viability: 0.617
[2]; 3 µM
  viability: 0.841
[2]; 15 µM
  viability: 0.796
[3]; 0.024 µM
  viability: 1.12
[3]; 0.12 µM
  viability: 1.04
[3]; 0.6 µM
  viability: 0.76
[3]; 3 µM
  viability: 0.818
[3]; 15 µM
  viability: 0.771
[4]; 0.024 µM
  viability: 1.06
[4]; 0.12 µM
  viability: 1.02
[4]; 0.6 µM
  viability: 0.875
[4]; 3 µM
  viability: 0.9
[4]; 15 µM
  viability: 0.738
[5]; 0.024 µM
  viability: 1
[5]; 0.12 µM
  viability: 1.06
[5]; 0.6 µM
  viability: 0.965
[5]; 3 µM
  viability: 0.663
[5]; 15 µM
  viability: 0.428
[6]; 0.024 µM
  viability: 0.564
[6]; 0.12 µM
  viability: 0.457
[6]; 0.6 µM
  viability: 0.465
[6]; 3 µM
  viability: 0.551
[6]; 15 µM
  viability: 0.878
[7]; 0.024 µM
  viability: 1.02
[7]; 0.12 µM
  viability: 0.98
[7]; 0.6 µM
  viability: 0.741
[7]; 3 µM
  viability: 0.781
[7]; 15 µM
  viability: 0.756
[8]; 0.024 µM
  viability: 0.956
[8]; 0.12 µM
  viability: 0.552
[8]; 0.6 µM
  viability: 0.512
[8]; 3 µM
  viability: 0.379
[8]; 15 µM
  viability: 0.311
[9]; 0.024 µM
  viability: 0.859
[9]; 0.12 µM
  viability: 0.734
[9]; 0.6 µM
  viability: 0.238
[9]; 3 µM
  viability: 0.122
[9]; 15 µM
  viability: 0.0937
[10]; 0.024 µM
  viability: 0.818
[10]; 0.12 µM
  viability: 0.819
[10]; 0.6 µM
  viability: 0.875
[10]; 3 µM
  viability: 0.911
[10]; 15 µM
  viability: 0.654
[11]; 0.024 µM
  viability: 1.13
[11]; 0.12 µM
  viability: 1
[11]; 0.6 µM
  viability: 0.785
[11]; 3 µM
  viability: 0.791
[11]; 15 µM
  viability: 0.188
[12]; 0.024 µM
  viability: 1.14
[12]; 0.12 µM
  viability: 0.761
[12]; 0.6 µM
  viability: 0.409
[12]; 3 µM
  viability: 0.459
[12]; 15 µM
  viability: 0.476
[13]; 0.024 µM
  viability: 1.09
[13]; 0.12 µM
  viability: 1.06
[13]; 0.6 µM
  viability: 0.865
[13]; 3 µM
  viability: 0.807
[13]; 15 µM
  viability: 0.422
[14]; 0.024 µM
  viability: 0.934
[14]; 0.12 µM
  viability: 0.882
[14]; 0.6 µM
  viability: 0.705
[14]; 3 µM
  viability: 0.647
[14]; 15 µM
  viability: 0.406

Source: the supplement of paper PMC10733146
